Experiments:
[1] = biological target: T1, Human PDGFRβ, cytoplasmic domain (GST-PDGFRβ) (Homo sapiens, UniProt P09619); test: Human PDGFRβ biochemical inhibition assay (off-chip Mobility Shift Assay)
T1 construct: made in house
Outline: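 GST-tagged cytoplasmic domain (aa 557-1106) from baculovirus was incubated 1 h at room temperature with compound, CSKtide, ATP at Km and Mg²⁺ in HEPES buffer, pH 7.5. Phosphorylated and unphosphorylated peptide were separated by off-chip mobility shift, and the product ratio P/(P+S) gave percent inhibition.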

[2] = biological target: T2, Human PDGFRα, cytoplasmic domain (GST-PDGFRα) (Homo sapiens, UniProt P16234); test: Human PDGFRα biochemical inhibition assay (off-chip Mobility Shift Assay)
T2 construct: made in house
T2 sequence (P16234 550-1089 T674I): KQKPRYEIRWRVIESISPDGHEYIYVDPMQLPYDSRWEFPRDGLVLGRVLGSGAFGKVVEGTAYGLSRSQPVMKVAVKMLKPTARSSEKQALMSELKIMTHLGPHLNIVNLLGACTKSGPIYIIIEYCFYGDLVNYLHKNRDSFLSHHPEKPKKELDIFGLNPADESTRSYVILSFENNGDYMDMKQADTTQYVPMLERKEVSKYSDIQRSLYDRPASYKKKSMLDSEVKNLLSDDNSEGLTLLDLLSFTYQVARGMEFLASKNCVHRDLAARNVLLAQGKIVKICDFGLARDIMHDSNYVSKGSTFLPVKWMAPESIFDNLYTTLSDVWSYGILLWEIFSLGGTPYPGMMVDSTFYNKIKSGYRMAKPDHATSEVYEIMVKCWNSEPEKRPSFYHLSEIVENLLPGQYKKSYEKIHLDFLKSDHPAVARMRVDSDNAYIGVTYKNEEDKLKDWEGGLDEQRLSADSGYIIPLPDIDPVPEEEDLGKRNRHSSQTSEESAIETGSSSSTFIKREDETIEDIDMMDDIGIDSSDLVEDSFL

T1 sequence (P09619 with tags, fused parts or gaps): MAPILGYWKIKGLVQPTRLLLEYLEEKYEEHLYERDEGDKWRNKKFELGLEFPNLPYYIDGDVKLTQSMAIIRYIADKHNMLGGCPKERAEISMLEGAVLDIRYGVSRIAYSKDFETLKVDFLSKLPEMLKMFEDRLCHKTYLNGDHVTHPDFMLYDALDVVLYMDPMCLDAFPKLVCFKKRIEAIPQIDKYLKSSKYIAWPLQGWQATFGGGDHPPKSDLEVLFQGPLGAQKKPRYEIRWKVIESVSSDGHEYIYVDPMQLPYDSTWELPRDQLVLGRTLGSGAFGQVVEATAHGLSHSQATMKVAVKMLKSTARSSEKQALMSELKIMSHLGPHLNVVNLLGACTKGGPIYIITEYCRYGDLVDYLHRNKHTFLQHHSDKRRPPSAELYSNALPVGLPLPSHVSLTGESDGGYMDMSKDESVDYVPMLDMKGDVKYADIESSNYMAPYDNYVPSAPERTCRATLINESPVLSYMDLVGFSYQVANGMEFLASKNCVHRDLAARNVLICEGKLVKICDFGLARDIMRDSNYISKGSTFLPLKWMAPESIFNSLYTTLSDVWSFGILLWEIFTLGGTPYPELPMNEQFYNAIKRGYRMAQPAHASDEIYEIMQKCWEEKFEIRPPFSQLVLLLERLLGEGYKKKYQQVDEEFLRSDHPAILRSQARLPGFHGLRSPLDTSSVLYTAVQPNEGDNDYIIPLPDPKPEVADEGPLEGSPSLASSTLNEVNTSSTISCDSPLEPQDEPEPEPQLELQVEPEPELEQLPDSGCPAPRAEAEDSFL

Compound | IC50 [1] [nM] | IC50 [2] [nM]
Cc1cncc(C(=O)Nc2cccc([C@H](C)Nc3cnc4[nH]c(-c5cnn(C)c5)nc4c3)c2)c1 [Compound 602, (S)-5-methyl-N-(3-(1-((2-(1-methyl-1H-pyrazol-4-yl)-3H-imidazo[4,5-b]pyridin-6-yl)amino)ethyl)phenyl) nicotinamide] | < 300 | < 300
CCn1cc2ncc(N[C@@H](C)c3cc(NC(=O)Cc4cc(C)c(F)cn4)ccc3C)nc2n1 [Compound 687, (S)-N-(3-(1-((2-ethyl-2H-pyrazolo[3,4-b]pyrazin-6-yl)amino)ethyl)-4-methylphenyl)-2-(5-fluoro-4-methylpyridin-2-yl)acetamide] | < 300 | < 300
CCn1cc2ncc(N[C@@H](C)c3cccc(NC(=O)c4ccc(CN5CCN(C)CC5)c(C5CC5)c4)c3)nc2n1 [Compound 502, (S)-3-cyclopropyl-N-(3-(1-((2-ethyl-2H-pyrazolo[3,4-b]pyrazin-6-yl)amino)ethyl)phenyl)-4-((4-methylpiperazin-1-yl)methyl)benzamide] | < 300 | < 300
C[C@H](Nc1cnc2cnn(C)c2n1)c1cccc(NC(=O)c2cnn(CCF)c2)c1 [Compound 154, (S)-1-(2-fluoroethyl)-N-(3-(1-((1-methyl-1H-pyrazolo[3,4-b]pyrazin-6-yl)amino)ethyl)phenyl)-1H-pyrazole-4-carboxamide] | < 300 | < 300
Cc1cc(C(=O)Nc2cccc([C@H](C)Nc3cnc4cnn(C)c4n3)c2)cnc1C#N [Compound 127, (S)-6-cyano-5-methyl-N-(3-(1-((1-methyl-1H-pyrazolo[3,4-b]pyrazin-6-yl)amino)ethyl)phenyl)nicotinamide] | < 300 | < 300
CCn1cc2ncc(N[C@@H](C)c3cccc(NC(=O)c4ccc(CN5CCN(C)CC5)c(C(F)F)c4)c3)nc2n1 [Compound 504, (S)-3-(difluoromethyl)-N-(3-(1-((2-ethyl-2H-pyrazolo[3,4-b]pyrazin-6-yl)amino)ethyl)phenyl)-4-((4-methylpiperazin-1-yl)methyl)benzamide] | < 300 | < 300
CCn1cc2ncc(N[C@@H](C)c3cccc(NC(=O)Nc4cnn(CC(C)C)c4)c3)nc2n1 [Compound 740, (S)-1-(3-(1-((2-ethyl-2H-pyrazolo[3,4-b]pyrazin-6-yl)amino)ethyl)phenyl)-3-(1-isobutyl-1H-pyrazol-4-yl)urea] | 300 to 1000 | < 300
C#Cc1cncc(C(=O)Nc2cccc([C@H](C)Nc3cnc4cnn(C)c4n3)c2)c1 [Compound 113, (S)-5-ethynyl-N-(3-(1-((1-methyl-1H-pyrazolo[3,4-b]pyrazin-6-yl)amino)ethyl)phenyl)nicotinamide] | 300 to 1000 | < 300
Cc1cc(C(=O)Nc2cccc([C@H](C)Nc3cnc4cnn(C)c4n3)c2)ccc1C(=O)OCCN1CCCC1 [Compound 268, 2-(pyrrolidin-1-yl)ethyl (S)-2-methyl-4-((3-(1-((1-methyl-1H-pyrazolo[3,4-b]pyrazin-6-yl)amino)ethyl)phenyl)carbamoyl) benzoate] | < 300 | < 300
Cc1cncc(C(=O)Nc2cccc([C@H](C)Nc3cnc4[nH]cc(-c5cccnc5)c4n3)c2)c1 [Compound 591, (S)-5-methyl-N-(3-(1-((7-(pyridin-3-yl)-5H-pyrrolo[2,3-b]pyrazin-2-yl)amino)ethyl)phenyl)nicotinamide] | < 300 | < 300
CCn1cc2ncc(N[C@@H](C)c3cccc(NC(=O)c4ccc(CN5CC[C@@H](F)C5)c(Cl)c4)c3)nc2n1 [Compound 464, 3-chloro-N-(3-((S)-1-((2-ethyl-2H-pyrazolo[3,4-b]pyrazin-6-yl)amino)ethyl)phenyl)-4-(((R)-3-fluoropyrrolidin-1-yl)methyl) benzamide] | < 300 | < 300
C[C@H](Nc1cnc2cnn(C)c2n1)c1cc(NC(=O)c2ccc(OC(F)F)nc2)ccc1F [Compound 202, (S)-6-(difluoromethoxy)-N-(4-fluoro-3-(1-((1-methyl-1H-pyrazolo[3,4-b]pyrazin-6-yl)amino)ethyl)phenyl) nicotinamide] | < 300 | < 300
Cc1cncc(C(=O)Nc2cccc([C@H](C)Nc3cnc4cnn(-c5cnn(C)c5)c4n3)c2)c1 [Compound 186, (S)-5-methyl-N-(3-(1-((1-(1-methyl-1H-pyrazol-4-yl)-1H-pyrazolo[3,4-b]pyrazin-6-yl)amino)ethyl)phenyl) nicotinamide] | < 300 | < 300

Further lines, results first:

IC50 [1] [nM] | IC50 [2] [nM] | Compound
300 to 1000 | < 300 | CCn1cc2ncc(N[C@@H](C)c3cccc(NC(=O)c4cnc(C)c(F)c4)c3)nc2n1 [Compound 419, (S)-N-(3-(1-((2-ethyl-2H-pyrazolo[3,4-b]pyrazin-6-yl)amino)ethyl)phenyl)-5-fluoro-6-methylnicotinamide]
< 300 | < 300 | CCn1cc2ncc(N[C@@H](C)c3cccc(NC(=O)c4cnc(C5CC5)c(C)c4)c3)nc2n1 [Compound 321, (S)-6-cyclopropyl-N-(3-(1-((2-ethyl-2H-pyrazolo[3,4-b]pyrazin-6-yl)amino)ethyl)phenyl)-5-methylnicotinamide]
< 300 | < 300 | CCn1cc2ncc(N[C@@H](C)c3cc(NC(=O)c4ccc(C5CC5)nc4)ccc3F)nc2n1 [Compound 302, (S)-6-cyclopropyl-N-(3-(1-((2-ethyl-2H-pyrazolo[3,4-b]pyrazin-6-yl)amino)ethyl)-4-fluorophenyl)nicotinamide]
≥ 1000 | < 300 | Cc1cncc(C(=O)Nc2cccc([C@H](C)Nc3cnc4cn(C)nc4n3)c2)c1 [Compound 274, (S)-5-methyl-N-(3-(1-((2-methyl-2H-pyrazolo[3,4-b]pyrazin-6-yl)amino)ethyl)phenyl)nicotinamide]
< 300 | < 300 | Cc1cc2ncc(N[C@@H](C)c3cc(NC(=O)c4cnn(C5CCC5)c4)ccc3F)nc2s1 [Compound 613, (S)-1-cyclobutyl-N-(4-fluoro-3-(1-((6-methylthieno[2,3-b]pyrazin-3-yl)amino)ethyl)phenyl)-1H-pyrazole-4-carboxamide]
< 300 | < 300 | Cc1cncc(C(=O)Nc2ccc(F)c([C@H](C)Nc3cnc4cn(CC5CCNC5)nc4n3)c2)c1 (stereo partly drawn) [Compound 410, N-(4-fluoro-3-((1S)-1-((2-(pyrrolidin-3-ylmethyl)-2H-pyrazolo[3,4-b]pyrazin-6-yl)amino)ethyl)phenyl)-5-methylnicotinamide]
< 300 | < 300 | CCn1cc2ncc(N[C@@H](C)c3cc(NC(=O)c4ccc(CN5CCOCC5)c(C)c4)ccc3F)nc2n1 [Compound 446, (S)-N-(3-(1-((2-ethyl-2H-pyrazolo[3,4-b]pyrazin-6-yl)amino)ethyl)-4-fluorophenyl)-3-methyl-4-(morpholinomethyl) benzamide]
< 300 | < 300 | CCn1cc2ncc(N[C@@H](C)c3cc(NC(=O)c4ccc(CN5CCCC5)c(Cl)c4)ccc3F)nc2n1 [Compound 426, (S)-3-chloro-N-(3-(1-((2-ethyl-2H-pyrazolo[3,4-b]pyrazin-6-yl)amino)ethyl)-4-fluorophenyl)-4-(pyrrolidin-1-ylmethyl) benzamide]

Reference: patent publication US20230102554A1 (GB002, INC., priority 2019, published 2023)
